Experiment [1] in a line: Ratio of the mean IC50 for sterol-synthesis inhibition of hepatocytes relative to hepatocytes in rat. It is filed as functional, Hepatocyte.
Experiment [2] can be described thus: Ratio of the mean IC50 for sterol-synthesis inhibition of spleen relative to hepatocytes in rat. The experiment is classed as functional, Hepatocyte.
Experiment [3] in a line: Ratio of the mean IC50 for sterol-synthesis inhibition of adrenal relative to hepatocytes in rat. The experiment is classed as functional, Hepatocyte.
A short description of experiment [4]: Ratio of the mean IC50 for sterol-synthesis inhibition of testes relative to hepatocytes in rat. The experiment is classed as functional, Hepatocyte.
The test system of experiment [5] is HMG-CoA reductase (Rattus norvegicus). Description: In vitro inhibition of rat liver microsomal HMG-CoA reductase activity; No Activity. On the technique in general: Liver microsomes are a subcellular fraction often used to study metabolism.

Each structure is given as a SMILES string.

With `Cn1nnnc1C(/C=C/[C@@H]1C[C@@H](O)CC(=O)O1)=C(c1ccc(F)cc1)c1ccc(F)cc1`, the Ratio in experiment [1] amounted to 1; in experiment [2], 149; in experiment [3] it was 76; in experiment [4], 86.
On the same counts, the results for `CC[C@H](C)C(=O)O[C@H]1C[C@@H](C)C=C2C=C[C@H](C)[C@H](CC[C@@H]3C[C@@H](O)CC(=O)O3)[C@H]21` [LOVASTATIN] are 1, 1.2, 1 and 1.3.
`Cn1nnnc1C(/C=C/[C@H]1C[C@H](O)CC(=O)O1)=C(c1ccc(F)cc1)c1ccc(F)cc1`: the IC50 entry in experiment [5] is given as “Not Active”.
